Residues, ends and D or L forms follow the SMILES beside them.

Test [1] concerns the target T1, RASA1-N SH2 domain (Homo sapiens, UniProt P20936).
T1 sequence (P20936 181-272 limits assumed): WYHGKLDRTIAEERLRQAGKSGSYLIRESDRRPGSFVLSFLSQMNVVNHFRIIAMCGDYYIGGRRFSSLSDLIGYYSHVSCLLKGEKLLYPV
As to the kind of experiment: FP saturation binding assay.

The target of test [2] is PIK3R2-N SH2 domain (Homo sapiens, UniProt O00459). Kind of test: FP saturation binding assay.
In test [3] the target is PIK3R2-NC tandem SH2 domains (Homo sapiens, UniProt O00459). As to the kind of experiment: FP saturation binding assay.
Test [4] concerns the target T2, PIK3R3-NC tandem SH2 domains (Homo sapiens, UniProt Q92569).
T2 construct: the tandem protein was included in our analysis with all internal amino acids linking the domains; 6X His; thioredoxin; made in house; host or cells: E. coli BL21(DE3)pLysS
As to the kind of experiment: FP saturation binding assay. As to conditions: high-confidence ErbB interactions. An outline of the steps: (§1)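 Rhodamine-labeled phosphopeptides (10 nM final) titrated with SH2 domain protein (0.002–10 µM, 12 points) in 20 mM HEPES, 100 mM KCl, 0.1% Tween-20, 5 mM DTT, pH 7.8; 20 min, room temperature, dark. FP read at 530/555 nm; KD fitted by nonlinear regression after thioredoxin background correction and outlier removal.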

For test [5], the target named is T3, RASA1-NC tandem SH2 domains (Homo sapiens, UniProt P20936).
T3 construct: the tandem protein was included in our analysis with all internal amino acids linking the domains; 6X His; thioredoxin; made in house; host or cells: E. coli BL21(DE3)pLysS
T3 sequence (P20936 181-441 limits assumed): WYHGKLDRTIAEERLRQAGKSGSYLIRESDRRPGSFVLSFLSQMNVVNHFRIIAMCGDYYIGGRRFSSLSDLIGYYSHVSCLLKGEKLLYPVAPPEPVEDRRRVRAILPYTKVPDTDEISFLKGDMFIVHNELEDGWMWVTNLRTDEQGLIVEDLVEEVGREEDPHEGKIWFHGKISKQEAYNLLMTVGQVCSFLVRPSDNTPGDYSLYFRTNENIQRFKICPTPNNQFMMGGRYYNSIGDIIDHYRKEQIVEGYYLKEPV
Kind of test: FP saturation binding assay. Particulars: Protein RASA1-NC; FP saturation binding, high-confidence ErbB interactions; mean over replicate hits. The method in brief:
as §1

The target of test [6] is T4, LCK SH2 domain (Homo sapiens, UniProt P06239).
T4 construct: 93 SH2 and 2 PTB domain-containing constructs; 6X His; thioredoxin; made in house; host or cells: E. coli BL21(DE3)pLysS
Kind of test: FP saturation binding assay. Particulars: Protein LCK; FP saturation binding, high-confidence ErbB interactions; mean over replicate hits. An outline of the steps:
as §1

Test [7] deals with T5, YES1 SH2 domain (Homo sapiens, UniProt P07947).
T5 construct: 6X His; thioredoxin; made in house; host or cells: BL21(DE3)pLysS E. coli
Kind of test: FP saturation binding assay. Particulars: high-confidence ErbB interactions. The method in brief: as §1

Test [8] deals with T6, SH2D1B SH2 domain (Homo sapiens, UniProt O14796).
T6 sequence (O14796 5-101 limits assumed): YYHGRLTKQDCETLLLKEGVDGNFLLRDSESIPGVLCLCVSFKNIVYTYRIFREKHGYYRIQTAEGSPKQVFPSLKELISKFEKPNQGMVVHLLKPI
Kind of test: FP saturation binding assay.

Test [9] has as its target T7, PTPN11-N SH2 domain (Homo sapiens, UniProt Q06124).
T7 sequence (Q06124 6-102 limits assumed): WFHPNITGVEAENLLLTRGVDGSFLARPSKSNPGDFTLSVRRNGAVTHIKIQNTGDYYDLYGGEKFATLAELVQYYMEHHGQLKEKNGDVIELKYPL
As to the kind of experiment: FP saturation binding assay.

The target in test [10] is T8, PIK3R3-N SH2 domain (Homo sapiens, UniProt Q92569).
T8 construct: 6X His; thioredoxin; made in house; host or cells: E. coli BL21(DE3)pLysS
As to the kind of experiment: FP saturation binding assay. As to conditions: high-confidence ErbB interactions. An outline of the steps: as §1

In test [11] the target is T9, PTK6 SH2 domain (Homo sapiens, UniProt Q13882).
T9 construct: from the PTK6 SH2 domain; 6X His; thioredoxin; made in house; host or cells: E. coli BL21(DE3)pLysS
Kind of test: FP saturation binding assay. Particulars: high-confidence ErbB interactions. An outline of the steps: as §1

Test [12] deals with T10, PTPN11-NC tandem SH2 domains (Homo sapiens, UniProt Q06124).
T10 sequence (Q06124 6-216 limits assumed): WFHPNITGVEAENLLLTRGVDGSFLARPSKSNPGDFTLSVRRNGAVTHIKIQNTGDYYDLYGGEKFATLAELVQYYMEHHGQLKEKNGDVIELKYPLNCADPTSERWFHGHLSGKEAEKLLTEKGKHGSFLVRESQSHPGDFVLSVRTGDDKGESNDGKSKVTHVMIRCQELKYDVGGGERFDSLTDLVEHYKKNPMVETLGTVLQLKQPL
As to the kind of experiment: FP saturation binding assay.

Test [13] has as its target T11, PIK3R1-N SH2 domain (Homo sapiens, UniProt P27986).
T11 construct: thioredoxin; made in house; host or cells: E. coli BL21(DE3)pLysS
As to the kind of experiment: biochemical. In kind it is binding. As to conditions: protein PIK3R1-N; FP, high-confidence ErbB interactions; mean of replicate hits.

In test [14] the target is GRB7 SH2 domain (Homo sapiens, UniProt Q14451). Kind of test: FP saturation binding assay. As to conditions: Mean KD (μM), protein GRB7; FP, high-confidence ErbB interactions; mean of replicate hits.
The target in test [15] is T12, PIK3R1-C SH2 domain (Homo sapiens, UniProt P27986).
T12 construct: 6X His; thioredoxin; made in house; host or cells: E. coli BL21(DE3)pLysS
Kind of test: FP saturation binding assay. As to conditions: protein PIK3R1-C, high-confidence ErbB interactions, mean of replicate hits. The method in brief:
as §1

In test [16] the target is T13, PIK3R3-C SH2 domain (Homo sapiens, UniProt Q92569).
T13 construct: thioredoxin; made in house; host or cells: E. coli BL21(DE3)pLysS
Kind of test: biochemical. In kind it is binding. As to conditions: protein PIK3R3-C; FP, high-confidence ErbB interactions; mean of replicate hits.

Test [17] deals with T14, PIK3R1-NC tandem SH2 domains (Homo sapiens, UniProt P27986).
T14 construct: the tandem protein was included in our analysis with all internal amino acids linking the domains; 6X His; thioredoxin; made in house; host or cells: E. coli BL21(DE3)pLysS
Kind of test: FP saturation binding assay. As to conditions: protein PIK3R1-NC; FP, high-confidence ErbB interactions; mean of replicate hits. An outline of the steps: as §1

Test [18] has as its target T15, PLCG1-C SH2 domain (Homo sapiens, UniProt P19174).
T15 construct: The 6X His-tagged SH2 domain proteins used in the assay, PLCG1-C, SHC4, VAV2; thioredoxin; made in house; host or cells: E. coli BL21(DE3)pLysS
T15 sequence (P19174 668-756 limits assumed): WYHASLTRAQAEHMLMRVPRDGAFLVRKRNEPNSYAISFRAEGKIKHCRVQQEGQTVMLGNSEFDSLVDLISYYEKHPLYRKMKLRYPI
As to the kind of experiment: biochemical. Particulars: protein PLCG1-C; high-confidence ErbB interactions; mean of replicate hits. In kind it is binding.

[19] abbreviates: protein PIK3R3-N, FP, mean of replicate hits.
Where [20] appears, read: protein PIK3R3-NC, FP, mean of replicate hits.

T11 sequence (P27986 333-428 limits assumed): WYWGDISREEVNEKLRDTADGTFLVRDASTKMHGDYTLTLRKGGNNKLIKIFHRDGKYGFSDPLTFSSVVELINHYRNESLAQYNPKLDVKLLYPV
Sequence of PIK3R2-NC tandem SH2 domains (O00459 330-716 limits assumed): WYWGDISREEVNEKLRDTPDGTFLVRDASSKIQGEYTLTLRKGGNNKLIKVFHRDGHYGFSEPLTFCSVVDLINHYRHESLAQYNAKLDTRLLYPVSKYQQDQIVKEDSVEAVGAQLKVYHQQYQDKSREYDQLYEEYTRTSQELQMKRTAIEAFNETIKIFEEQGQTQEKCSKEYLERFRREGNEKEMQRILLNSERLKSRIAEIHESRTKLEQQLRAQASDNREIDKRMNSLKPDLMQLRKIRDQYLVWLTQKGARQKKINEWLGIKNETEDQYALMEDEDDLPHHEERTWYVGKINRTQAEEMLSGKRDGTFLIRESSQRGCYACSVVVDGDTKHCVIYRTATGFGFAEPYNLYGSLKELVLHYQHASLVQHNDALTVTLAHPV
T9 sequence (Q13882 78-170 limits assumed): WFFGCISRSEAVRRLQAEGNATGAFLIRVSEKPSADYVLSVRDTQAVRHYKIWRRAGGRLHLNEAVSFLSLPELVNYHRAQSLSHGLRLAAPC
Sequence of PIK3R2-N SH2 domain (O00459 330-425 limits assumed): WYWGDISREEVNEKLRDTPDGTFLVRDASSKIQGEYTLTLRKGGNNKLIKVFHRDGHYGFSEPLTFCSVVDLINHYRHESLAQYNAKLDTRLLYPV
Sequence of GRB7 SH2 domain (Q14451 431-527 limits assumed): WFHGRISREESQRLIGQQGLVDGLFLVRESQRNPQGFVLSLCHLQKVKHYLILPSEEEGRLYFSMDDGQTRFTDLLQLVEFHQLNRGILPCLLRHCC
T12 sequence (P27986 624-718 limits assumed): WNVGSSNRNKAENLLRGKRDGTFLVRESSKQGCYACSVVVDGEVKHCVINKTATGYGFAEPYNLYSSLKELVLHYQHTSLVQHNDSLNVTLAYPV
T5 sequence (P07947 158-255 limits assumed): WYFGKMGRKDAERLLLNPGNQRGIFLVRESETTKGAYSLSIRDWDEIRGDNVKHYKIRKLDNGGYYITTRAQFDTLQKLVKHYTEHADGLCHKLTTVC
T4 sequence (P06239 127-224 limits assumed): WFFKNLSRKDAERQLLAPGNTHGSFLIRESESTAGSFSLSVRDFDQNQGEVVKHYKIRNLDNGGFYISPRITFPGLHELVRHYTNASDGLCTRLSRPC
T14 sequence (P27986 333-718 limits assumed): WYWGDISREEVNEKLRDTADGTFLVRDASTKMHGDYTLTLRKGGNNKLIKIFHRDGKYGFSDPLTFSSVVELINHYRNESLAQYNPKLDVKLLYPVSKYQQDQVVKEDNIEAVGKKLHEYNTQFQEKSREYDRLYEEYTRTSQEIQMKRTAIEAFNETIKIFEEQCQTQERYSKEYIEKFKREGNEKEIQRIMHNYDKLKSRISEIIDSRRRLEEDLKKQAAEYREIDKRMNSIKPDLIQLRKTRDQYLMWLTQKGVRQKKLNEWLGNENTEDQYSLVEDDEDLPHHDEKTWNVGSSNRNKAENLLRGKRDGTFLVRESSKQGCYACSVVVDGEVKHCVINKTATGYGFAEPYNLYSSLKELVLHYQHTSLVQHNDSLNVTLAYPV

As for `CSCC[C@H](NC(=O)[C@@H](NC(=O)[C@H](Cc1ccc(OP(=O)(O)O)cc1)NC(=O)[C@H](C)NC(=O)[C@H](CCC(=O)O)NC(=O)[C@H](CC(=O)O)NC(=O)[C@@H](N)CC(C)C)C(C)C)C(=O)N[C@@H](C)C(=O)N[C@@H](CO)C(=O)N[C@H](C(=O)N[C@@H](CC(=O)O)C(=O)N[C@@H](CC(N)=O)C(=O)N[C@@H](CC(=O)O)C(=O)O)C(C)C` [ErbB1 764 13-mer] (HELM PEPTIDE1{L.D.E.A.[O=C([C@H](Cc1ccc(OP(=O)(O)O)cc1)N[*:1])[*:2]].V.M.A.S.V.D.N.D}$$$$V2.0), the Kd (usually a measure of binding affinity in units of concentration) in test [1] worked out at 9.7 µM; in test [2], 2.36 µM; in test [3], 3.07 µM; in test [4] (Protein PIK3R3-NC, FP saturation binding, mean over replicate hits), 1.91 µM.
Regarding `CSCC[C@H](NC(=O)[C@H](CC(C)C)NC(=O)[C@H](C)NC(=O)[C@H](CCCNC(=N)N)NC(=O)[C@H](Cc1ccc(OP(=O)(O)O)cc1)NC(=O)[C@H](Cc1ccccc1)NC(=O)[C@H](CC(N)=O)NC(=O)[C@H](CO)NC(=O)[C@@H](N)CC(=O)O)C(=O)N[C@@H](CC(=O)O)C(=O)N[C@@H](CCC(=O)O)C(=O)N[C@@H](CCC(=O)O)C(=O)N[C@@H](CC(=O)O)C(=O)O` [ErbB1 998 13-mer] (HELM PEPTIDE1{D.S.N.F.[O=C([C@H](Cc1ccc(OP(=O)(O)O)cc1)N[*:1])[*:2]].R.A.L.M.D.E.E.D}$$$$V2.0), the Kd was 2.85 µM in test [1]; 12.6 µM in test [5]; 5.79 µM in test [6]; 7.05 µM in test [7] (Protein YES1, FP saturation binding, mean over replicate hits); 3.98 µM in test [8]; 13.1 µM in [9].
As to `CC[C@H](C)[C@H](NC(=O)[C@H](CC(C)C)NC(=O)[C@H](Cc1ccc(OP(=O)(O)O)cc1)NC(=O)[C@H](CCC(=O)O)NC(=O)[C@H](CC(=O)O)NC(=O)[C@H](C)NC(=O)[C@@H](N)CC(=O)O)C(=O)N1CCC[C@H]1C(=O)N[C@@H](CCC(N)=O)C(=O)N[C@@H](CCC(N)=O)C(=O)NCC(=O)N[C@@H](Cc1ccccc1)C(=O)N[C@@H](CC(=O)O)C(=O)O` [ErbB1 1016 13-mer], the Kd in test [1] was 1.67 µM; in [2], 2.48 µM; in test [3] it was 2.43 µM; in test [5], 1.1 µM; in test [10] (Protein PIK3R3-N, FP saturation binding, mean over replicate hits) it was 3.21 µM; in [11] (Protein PTK6, FP saturation binding, mean over replicate hits), 3.04 µM.
Turning to `CC[C@H](C)[C@H](NC(=O)[C@@H]1CCCN1C(=O)[C@@H](NC(=O)[C@H](CCCCN)NC(=O)[C@H](C)NC(=O)[C@H](CCC(=O)O)NC(=O)[C@H](CO)NC(=O)[C@H](Cc1ccc(OP(=O)(O)O)cc1)NC(=O)[C@H](CC(C)C)NC(=O)[C@H](CC(C)C)NC(=O)[C@H](CCC(N)=O)NC(=O)[C@@H](N)CCCCN)[C@@H](C)O)C(=O)N[C@@H](CC(=O)O)C(=O)O` [ErbB3 868 13-mer] (HELM PEPTIDE1{K.Q.L.L.[O=C([C@H](Cc1ccc(OP(=O)(O)O)cc1)N[*:1])[*:2]].S.E.A.K.T.P.I.D}$$$$V2.0), the Kd in test [12] is 3.68 µM; in test [8], 4.96 µM; in test [9], 3.61 µM.
For the molecule `CSCC[C@H](NC(=O)[C@H](Cc1ccc(O)cc1)NC(=O)[C@H](CCC(=O)O)NC(=O)[C@H](Cc1ccc(OP(=O)(O)O)cc1)NC(=O)[C@H](CC(=O)O)NC(=O)[C@H](CCC(=O)O)NC(=O)[C@H](CC(=O)O)NC(=O)[C@@H]1CCCN1)C(=O)N[C@@H](CC(N)=O)C(=O)N[C@@H](CCCNC(=N)N)C(=O)N[C@@H](CCC(N)=O)C(=O)N[C@@H](CCCNC(=N)N)C(=O)N[C@@H](CC(=O)O)C(=O)O` [ErbB3 1260 13-mer] (HELM PEPTIDE1{P.D.E.D.[O=C([C@H](Cc1ccc(OP(=O)(O)O)cc1)N[*:1])[*:2]].E.Y.M.N.R.Q.R.D}$$$$V2.0), the dissociation constant (Kd) in [13] was 0.48 µM; in [14], 0.1 µM; in test [15], 0.47 µM.
`CSCC[C@H](NC(=O)[C@H](C)NC(=O)[C@H](C)NC(=O)[C@H](Cc1ccc(OP(=O)(O)O)cc1)NC(=O)[C@H](CC(=O)O)NC(=O)CNC(=O)CNC(=O)[C@@H]1CCCN1)C(=O)NCC(=O)N[C@@H](C)C(=O)N[C@@H](CS)C(=O)N1CCC[C@H]1C(=O)N[C@@H](CC(=O)O)C(=O)O` [ErbB3 1276 13-mer] (HELM PEPTIDE1{P.G.G.D.[O=C([C@H](Cc1ccc(OP(=O)(O)O)cc1)N[*:1])[*:2]].A.A.M.G.A.C.P.D}$$$$V2.0): the dissociation constant Kd in [13] came out at 6 µM; in test [16], 9.86 µM; in test [10] (setting [19]), 2.46 µM; in test [4] (setting [20]), 3.71 µM; in test [15], 2.3 µM.
As for `CC(C)C[C@H](NC(=O)[C@H](Cc1ccc(O)cc1)NC(=O)[C@H](CC(C)C)NC(=O)[C@@H]1CCCN1C(=O)[C@H](CCC(=O)O)NC(=O)[C@H](CC(N)=O)NC(=O)[C@@H](NC(=O)[C@H](Cc1ccc(OP(=O)(O)O)cc1)NC(=O)[C@H](CCC(=O)O)NC(=O)[C@H](CC(=O)O)NC(=O)[C@H](CCC(=O)O)NC(=O)[C@H](C)N)C(C)C)C(=O)N[C@@H](CC(=O)O)C(=O)O` [ErbB4 1202 13-mer] (HELM PEPTIDE1{A.E.D.E.[O=C([C@H](Cc1ccc(OP(=O)(O)O)cc1)N[*:1])[*:2]].V.N.E.P.L.Y.L.D}$$$$V2.0), the Kd in [1] came to 1.46 µM; in test [13] it was 1.35 µM; in test [3] it was 4.97 µM; in test [14], 2.06 µM; in [17] it was 1.54 µM; in [10] (setting [19]), 1.86 µM. The Kd in test [7] (protein YES1, mean of replicate hits) was 1.61 µM; in test [4] (setting [20]), 2.86 µM; in test [11] (protein PTK6, mean of replicate hits), 1.19 µM; in [18], 1.55 µM.

The values above are taken from publication PMC3433420 (PLoS ONE, 2012).
